# Activity calls are given as the source filed them. No cut-off for these calls is given here.
# Columns and labels:
# [1] = Selectivity ratio of IC50 for phototoxicity against human NHDF cells upon LED light irradiation to IC50 for phototoxicity against human HeLa cells upon LED light irradiation; assay type: toxicity, cell-based; settings: NHDF cells versus HeLa cells, read-out: Ratio IC50
# [2] = Phototoxicity ratio of IC50 for cytotoxicity against human PC-3 cells assessed as reduction in cell viability in dark to IC50 for phototoxicity against human PC-3 cells upon LED light irradiation; assay type: toxicity, cell-based
# [3] = Phototoxicity against human PC-3 cells assessed as reduction in cell viability preincubated for 24 hrs followed by 7 mins of LED light irradiation by MTT assay; assay type: toxicity, cell-based; settings: PC-3, light or radiation study
# HeLa [4] = test: Induction of morphological change in human HeLa cells assessed as intracellular space dilation at 1 uM preincubated for 24 hrs followed by 7 mins of LED light irradiation and measured upto 48 hrs by microscopic analysis; assay type: functional, cell-based; settings: time min <=4327
# HeLa [5] = test: Induction of apoptosis in human HeLa cells assessed as increase in DNA cleavage at 1 uM preincubated for 24 hrs followed by 7 mins LED light irradiation and measured after 24 hrs by PI staining based flow cytometry analysis; assay type: functional; settings: time 2887 min, 48.12 h
# HeLa [6] = test: Induction of morphological change in human HeLa cells assessed as plasma membrane rupture at 1 uM preincubated for 24 hrs followed by 7 mins of LED light irradiation and measured upto 48 hrs by microscopic analysis; assay type: functional; settings: time min <=4327
# [7] = Selectivity ratio of IC50 for phototoxicity against human NHDF cells upon LED light irradiation to IC50 for phototoxicity against human PC-3 cells upon LED light irradiation; assay type: toxicity, cell-based; settings: NHDF cells versus PC-3 cells, read-out: Ratio IC50
# HeLa [8] = test: Induction of cell cycle arrest in human HeLa cells assessed as accumulation in G0/G1 phase at 0.24 uM with red light radiation for 7 mins by PI staining based flow cytometry analysis (reference value: 63.18 %); assay type: functional
# [9] = Dark toxicity against human NHDF cells assessed as reduction in cell viability incubated for 24 hrs by MTT assay; assay type: cell-based
# [10] = Phototoxicity ratio of IC50 for cytotoxicity against human NHDF cells assessed as reduction in cell viability in dark to IC50 for phototoxicity against human NHDF cells upon LED light irradiation; assay type: toxicity, cell-based; settings: read-out: Ratio IC50
# Albumin = Albumin (Homo sapiens, UniProt P02768); test: Binding affinity to human serum albumin assessed as binding constant by fluorescence based assay
# HeLa [11] = test: Induction of cell cycle arrest in human HeLa cells assessed as accumulation in G2/M phase at 0.24 uM by PI staining based flow cytometry analysis (reference value: 4.79 %); assay type: functional
# [12] = Phototoxicity ratio of IC50 for cytotoxicity against human MCF7 cells assessed as reduction in cell viability in dark to IC50 for phototoxicity against human MCF7 cells upon LED light irradiation; assay type: toxicity, cell-based
# [13] = Selectivity ratio of IC50 for phototoxicity against human NHDF cells upon LED light irradiation to IC50 for phototoxicity against human MCF7 cells upon LED light irradiation; assay type: toxicity, cell-based; settings: NHDF cells versus MCF7 cells, read-out: Ratio IC50
# [14] = Dark toxicity against human Caco-2 cells assessed as reduction in cell viability incubated for 24 hrs by MTT assay; assay type: cell-based
# [15] = Phototoxicity ratio of IC50 for cytotoxicity against human Caco-2 cells assessed as reduction in cell viability in dark to IC50 for phototoxicity against human Caco-2 cells upon LED light irradiation; assay type: toxicity, cell-based
# [16] = Genotoxicity in human HeLa cells assessed as genetic damage index at 1 uM measured after 24 hrs in absence of light by alkali comet assay; assay type: toxicity, cell-based
# HeLa [17] = test: Induction of cell cycle arrest in human HeLa cells assessed as accumulation in S phase at 0.24 uM with red light radiation for 7 mins by PI staining based flow cytometry analysis (reference value: 32.09 %); assay type: functional
# [18] = Phototoxicity against human HeLa cells assessed as reduction in cell viability preincubated for 24 hrs followed by 7 mins of LED light irradiation by MTT assay; assay type: toxicity, cell-based; settings: light or radiation study
# [19] = Selectivity ratio of IC50 for phototoxicity against human NHDF cells upon LED light irradiation to IC50 for phototoxicity against human Caco-2 cells upon LED light irradiation; assay type: toxicity, cell-based; settings: NHDF cells versus Caco-2 cells, read-out: Ratio IC50
# HeLa [20] = test: Induction of cell cycle arrest in human HeLa cells assessed as accumulation in S phase at 1 uM by PI staining based flow cytometry analysis (reference value: 32.14 %); assay type: functional
# [21] = Phototoxicity ratio of IC50 for cytotoxicity against human HeLa cells assessed as reduction in cell viability in dark to IC50 for phototoxicity against human HeLa cells upon LED light irradiation; assay type: toxicity, cell-based
# [22] = Phototoxicity against human Caco-2 cells assessed as reduction in cell viability preincubated for 24 hrs followed by 7 mins of LED light irradiation by MTT assay; assay type: toxicity, cell-based; settings: Caco-2, light or radiation study
# [23] = Drug localization in lysosome of human HeLa cells at 1 uM incubated for 24 hrs by Green Fluorescent Protein based confocal laser scanning microscopy analysis; assay type: ADME, subcellular
# [24] = Phototoxicity against human NHDF cells assessed as reduction in cell viability preincubated for 24 hrs followed by 7 mins of LED light irradiation by MTT assay; assay type: toxicity, cell-based
# HeLa [25] = test: Induction of morphological change in human HeLa cells assessed as rounded cell morphology at 0.25 uM preincubated for 24 hrs followed by 7 mins of LED light irradiation and measured upto 48 hrs by microscopic analysis; assay type: functional, cell-based; settings: time min <=4327
# [26] = Dark toxicity against human PC-3 cells assessed as reduction in cell viability incubated for 24 hrs by MTT assay; assay type: cell-based
# HeLa [27] = test: Induction of cell cycle arrest in human HeLa cells assessed as accumulation in G0/G1 phase at 1 uM by PI staining based flow cytometry analysis (reference value: 67.03 %); assay type: functional
# [28] = Dark toxicity against human MCF7 cells assessed as reduction in cell viability incubated for 24 hrs by MTT assay; assay type: cell-based
# [29] = Dark toxicity against human HeLa cells assessed as reduction in cell viability incubated for 24 hrs by MTT assay; assay type: cell-based
# HeLa [30] = test: Induction of morphological change in human HeLa cells assessed as reduction in adhesion at 0.25 uM preincubated for 24 hrs followed by 7 mins of LED light irradiation and measured upto 48 hrs by microscopic analysis; assay type: functional, cell-based; settings: time min <=4327
# HeLa [31] = test: Induction of cell cycle arrest in human HeLa cells assessed as accumulation in G0/G1 phase at 0.24 uM by PI staining based flow cytometry analysis (reference value: 67.03 %); assay type: functional
# HeLa [32] = test: Induction of cell cycle arrest in human HeLa cells assessed as accumulation in G2/M phase at 1 uM by PI staining based flow cytometry analysis (reference value: 4.79 %); assay type: functional
# HeLa [33] = test: Induction of cell cycle arrest in human HeLa cells assessed as accumulation in S phase at 0.24 uM by PI staining based flow cytometry analysis (reference value: 32.14 %); assay type: functional
# [34] = Phototoxicity against human MCF7 cells assessed as reduction in cell viability preincubated for 24 hrs followed by 7 mins of LED light irradiation by MTT assay; assay type: toxicity, cell-based; settings: MCF7, light or radiation study
# HeLa [35] = test: Induction of cell cycle arrest in human HeLa cells assessed as accumulation in G2/M phase at 0.24 uM with red light radiation for 7 mins by PI staining based flow cytometry analysis (reference value: 4.73 %); assay type: functional
# HeLa [36] = test: Induction of apoptosis in human HeLa cells at 0.24 uM preincubated for 24 hrs followed by 7 mins LED light irradiation and measured after 24 hrs by PI staining based flow cytometry analysis; assay type: functional; settings: time 2887 min, 48.12 h
# HeLa [37] = test: Induction of morphological change in human HeLa cells assessed as cell shrinkage at 0.25 uM preincubated for 24 hrs followed by 7 mins of LED light irradiation and measured upto 48 hrs by microscopic analysis; assay type: functional, cell-based; settings: time min <=4327
# [38] = Drug localization in mitochondria of human HeLa cells at 1 uM incubated for 24 hrs by Rhodamine 123 based confocal laser scanning microscopy analysis; assay type: ADME
# Albumin, sequence (P02768 whole entry): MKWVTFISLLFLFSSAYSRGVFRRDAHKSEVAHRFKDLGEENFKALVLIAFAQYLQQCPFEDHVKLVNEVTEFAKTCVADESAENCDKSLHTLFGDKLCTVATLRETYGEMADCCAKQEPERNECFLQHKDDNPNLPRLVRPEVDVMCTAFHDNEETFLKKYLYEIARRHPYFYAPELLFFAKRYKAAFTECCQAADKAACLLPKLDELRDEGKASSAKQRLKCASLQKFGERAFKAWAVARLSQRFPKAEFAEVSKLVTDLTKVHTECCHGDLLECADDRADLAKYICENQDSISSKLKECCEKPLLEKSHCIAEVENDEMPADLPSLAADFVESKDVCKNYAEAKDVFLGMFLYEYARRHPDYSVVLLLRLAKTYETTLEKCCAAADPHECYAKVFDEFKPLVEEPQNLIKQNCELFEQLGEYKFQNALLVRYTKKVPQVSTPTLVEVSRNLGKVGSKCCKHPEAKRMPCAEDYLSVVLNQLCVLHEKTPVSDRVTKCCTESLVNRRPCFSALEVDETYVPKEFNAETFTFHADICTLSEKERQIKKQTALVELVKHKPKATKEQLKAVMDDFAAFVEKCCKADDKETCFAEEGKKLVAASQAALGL
smiles,measurement,setting,value
CCN1/C(=C/C2=C(NCc3ccccn3)C(=C/C3=[N+](CC)c4ccc5ccccc5c4C3(C)C)/C2=O)C(C)(C)c2c1ccc1ccccc21.[I-],selectivity ratio,[1],1.1
same,Ratio IC50,[2],23.8
same,IC50,[3],0.087 µM
same,Activity,HeLa [4],Active
same,Activity,HeLa [5],68%
same,Activity,HeLa [6],Active
same,selectivity ratio,[7],3.02
same,Activity,HeLa [8],67.14%
same,IC50 at 24 h,[9],2.13 µM
same,selectivity ratio,[10],8.1
same,Kb,Albumin,6.93 10^5/M
same,Activity,HeLa [11],4%
same,Ratio IC50,[12],9.8
same,selectivity ratio,[13],1.59
same,IC50 at 24 h,[14],2.02 µM
same,Ratio IC50,[15],21.9
same,Activity,[16],24 a.u.
same,Activity,HeLa [17],16.91%
same,IC50,[18],0.24 µM
same,selectivity ratio,[19],2.86
same,Activity,HeLa [20],26.68%
same,Ratio IC50,[21],9.1
same,IC50,[22],0.092 µM
same,Drug uptake,[23],Not Active
same,IC50 at 24 h,[24],0.263 µM
same,Activity,HeLa [25],Active
same,IC50 at 24 h,[26],2.07 µM
same,Activity,HeLa [27],68.34%
same,IC50 at 24 h,[28],1.61 µM
same,IC50 at 24 h,[29],2.18 µM
same,Activity,HeLa [30],Active
same,Activity,HeLa [31],73.97%
same,Activity,HeLa [32],4.98%
same,Activity,HeLa [33],22.04%
same,IC50,[34],0.165 µM
same,Activity,HeLa [35],15.95%
same,Activity,HeLa [36],2%
same,Activity,HeLa [37],Active
same,Drug uptake,[38],Active

# From ChEMBL document CHEMBL5042514, “Picolylamine-functionalized benz[e]indole squaraine dyes: Synthetic approach, characterization and in vitro efficacy as potential anticancer phototherapeutic agents” (Eur J Med Chem, 2022)
